Results reported in patent publication US7045343B2, “Sterilization indicator test packs” (3M Innovative Properties Company, priority 1998, dated 2006).

System: enzyme associated with Bacillus stearothermophilus spores
Assay: Rapid enzyme fluorescence readout of indicators after hydrogen peroxide plasma sterilization
Assay type: biochemical
Details: 1–3 hours after exposure
Procedure: Sterilization indicators for Examples 6–9 were prepared as described above with the exception that closure member 22 of the sterilization indicator was constructed of TYVEK™ high-density polyethylene fiber material, commercially available from E.I. du Pont de Nemours and Co., Wilmington, Del.
(§1) Sterilization indicators were made as described above with spores that had been coated with each of the chemicals and concentrations listed in Table 6. The indicators were placed in instrument trays and exposed to a hydrogen peroxide plasma sterilization procedure at 45–55° C. in a STERRAD™ 100SI GMP Sterilizer, obtained from Advanced Sterilization Products Co., Irvine, Calif. During the sterilization procedure a vacuum was drawn in the sterilization chamber for 5–6 minutes until the pressure was reduced to 300 mTorr. A 1.8 ml aliquot of an aqueous solution of 58–60% hydrogen peroxide was then injected into the sterilization chamber over a period of about 6 minutes, yielding an empty chamber concentration of […] hydrogen peroxide, and hydrogen peroxide vapor was allowed to diffuse throughout the chamber for 1–22 minutes at 6–10 Torr. A vacuum was then drawn, reducing the pressure to 500 mTorr and removing all detectable hydrogen peroxide vapor from the chamber.
After exposure to the sterilization procedure, the indicators were removed from the sterilizer and the inner containers containing the enzyme substrate and nutrient medium were crushed. The indicators were then incubated at 60° C. and examined for fluorescence every hour for 5 hours using a 3M™ ATTEST™ Model 190 Rapid Autoreader, commercially available from 3M Company, St. Paul, Minn. Additionally, spore growth, as indicated by a color change from purple to yellow, was determined visually after 168 hours of incubation.
The number of growth positive indicators detected after 168 hours of incubation is recorded in Table 6.
as §1, with “7.” for “6.”
as §1, with “8.” for “6.”, “chamber. […]” for “chamber.”

## O=CC(=O)C=O [1,2,3-Propantrial]
  accuracy of sterilization indicators compared to indicators made with untreated spores: improved
